Experimental data from US11000458B2, “Method and product for producing formulations containing ceramide” (Evonik Operations GmbH, priority 2017, dated 2021).

Assay: Minimum required dissolution temperature of ceramide NP in oils
Format: physicochemical
Method: The minimum required dissolution temperature for 0.1 g of ceramide NP in 20 g of various oils was determined.

## Ceramide NP
0.1 g of ceramide NP in 20 g Caprylic/Capric Triglycerides (TEGOSOFT ® CT)
  required dissolution temperatures: 95 °C
0.1 g of ceramide NP in 20 g Ethylhexyl Stearate (TEGOSOFT ® OS)
  required dissolution temperatures: 100 °C
0.1 g of ceramide NP in 20 g Persea gratissima (Avocado) oil
  required dissolution temperatures: 100 °C
